Results on 33 compounds are retold here after patent US20140349994A1, “Novel 2-Amino-4,5,6,8-Tetrahydropyrazolo[3,4-b]Thiazolo [4,5-d]Azepine Derivatives and Their Use as Allosteric Modulators of Metabotropic Glutamate Receptors” (Addex Pharma S.A., priority 2012, published 2014).

A word on the EC50: it is the concentration giving half of the maximal effect. Usually melting point stands for the temperature, or range, at which the solid turns liquid.

The target of data set [1] is T1, recombinant human mGluR4a receptors (Homo sapiens, UniProt Q14833).
T1 construct: expressed in transfected cells
Put plainly: mGluR4 assay on HEK-expressing human mGluR4: fluorescent cell based Ca2+ mobilization assay (FLIPR). Particulars: HEK-293 cells expressing hmGluR4; enhancement of EC25 glutamate response; mean of at least three independent experiments in duplicate; read-out: Ca^2+ Flux (mean EC50). The text has this: mGluR4 Assay on HEK-Expressing Human mGluR4
The compounds of the present invention are positive allosteric modulators of mGluR4 receptor. Their activity was examined on recombinant human mGluR4a receptors by detecting changes in intracellular Ca^2+ concentration, using the fluorescent Ca^2+-sensitive dye Fluo4-(AM) and a Fluorometric Imaging Plate Reader (FLIPR, Molecular Devices, Sunnyvale, Calif.).
The cDNA encoding the human metabotropic glutamate receptor (hmGluR4), (accession number NM 000841.1, NCBI Nucleotide database browser), was subcloned into an expression vector containing also the hygromycin resistance gene. In parallel, the cDNA encoding a G protein allowing redirection of the activation signal to intracellular calcium flux was subcloned into a different expression vector containing also the puromycin resistance gene. Transfection of both these vectors into HEK293 cells with PolyFect reagent (Qiagen) according to supplier's protocol, and hygromycin and puromycin treatment allowed selection of antibiotic resistant cells which had integrated stably one or more copies of the plasmids. Positive cellular clones expressing hmGluR4 were identified in a functional assay measuring changes in calcium fluxes in response to glutamate or selective known mGluR4 orthosteric agonists and antagonists.
HEK-293 cells expressing hmGluR4 were maintained in media containing DMEM, dialyzed Fetal Calf Serum (10%), Glutamax™ (2 mM), Penicillin (100 units/mL), Streptomycin (100 μg/mL), Geneticin (100 μg/mL) and Hygromycin-B (40 μg/mL) and puromycin (1 μg/mL) at 37° C.5% CO2.
Human mGluR4 HEK-293 cells were plated out 24 hours prior to FLIPR^384 assay in black-walled, clear-bottomed, poly-L-ornithine-coated 384-well plates at a density of 25,000 cells/well in a glutamine/glutamate free DMEM medium containing foetal bovine serum (10%), penicillin (100 units/mL) and streptomycin (100 μg/mL) at 37° C.5% CO2.
On the day of the assay, the medium was aspirated and the cells were loaded with a 3 μM solution of Fluo4-AM (LuBioScience, Lucerne, Switzerland) in 0.03% pluronic acid. After 1 hour at 37° C. 5% CO2, the non incorporated dye was removed by washing cell plate with the assay buffer and the cells were left in the dark at room temperature for six hours before testing. All assays were performed in a pH 7.4 buffered-solution containing 20 mM HEPES, 143 mM NaCl, 6 mM KCl, 1 mM MgSO4, 1 mM CaCl2, 0.125 mM sulfapyrazone and 0.1% glucose.
After 10 s of basal fluorescence recording, various concentrations of the compounds of the invention were added to the cells. Changes in fluorescence levels were first monitored for 180 s in order to detect any agonist activity of the compounds. Then the cells were stimulated by an EC25 glutamate concentration for an additional 110 s in order to measure enhancing activities of the compounds of the invention. EC25 glutamate concentration is the concentration giving 25% of the maximal glutamate response.
The concentration-response curves of representative compounds of the present invention were generated using the Prism GraphPad software (Graph Pad Inc, San Diego, USA). The curves were fitted to a four-parameter logistic equation:
(Y=Bottom+(Top-Bottom)(1+10̂((Log EC50−X)*Hill Slope)
allowing the determination of EC50 values.
The Table 3 below represents the mean EC50 obtained from at least three independent experiments of selected molecules performed in duplicate.
A general note: Calcium assays in cells follow changes in intracellular calcium, usually with a dye or a luminescent sensor.

Molecules are shown by their SMILES.

T1 sequence (Q14833 33-912): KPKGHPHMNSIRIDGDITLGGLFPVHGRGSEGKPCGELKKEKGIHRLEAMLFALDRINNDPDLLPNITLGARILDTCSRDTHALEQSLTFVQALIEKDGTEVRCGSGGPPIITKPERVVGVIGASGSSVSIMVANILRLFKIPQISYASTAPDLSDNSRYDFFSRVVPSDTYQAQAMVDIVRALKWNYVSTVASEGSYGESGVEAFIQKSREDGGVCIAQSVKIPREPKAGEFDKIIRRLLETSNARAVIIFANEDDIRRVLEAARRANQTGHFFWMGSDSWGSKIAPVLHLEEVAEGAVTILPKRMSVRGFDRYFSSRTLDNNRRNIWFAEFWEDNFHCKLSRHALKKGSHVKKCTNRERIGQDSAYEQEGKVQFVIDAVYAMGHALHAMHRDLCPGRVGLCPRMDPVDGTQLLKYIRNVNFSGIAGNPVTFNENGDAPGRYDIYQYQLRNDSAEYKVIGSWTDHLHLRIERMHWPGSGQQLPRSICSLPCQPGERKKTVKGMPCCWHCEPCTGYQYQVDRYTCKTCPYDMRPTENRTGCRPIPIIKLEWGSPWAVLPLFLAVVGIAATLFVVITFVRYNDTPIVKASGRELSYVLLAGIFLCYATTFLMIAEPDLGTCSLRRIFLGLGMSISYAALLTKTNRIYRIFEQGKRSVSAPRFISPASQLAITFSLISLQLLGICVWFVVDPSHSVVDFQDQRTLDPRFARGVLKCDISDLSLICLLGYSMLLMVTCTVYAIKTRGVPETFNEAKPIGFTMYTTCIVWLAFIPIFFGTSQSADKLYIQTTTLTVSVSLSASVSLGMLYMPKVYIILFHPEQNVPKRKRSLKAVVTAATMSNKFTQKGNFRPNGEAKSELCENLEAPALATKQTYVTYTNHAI

`N#Cc1cccc(CN2CCc3sc(Nc4ncc(F)cn4)nc3-c3cn[nH]c32)c1` [Compound 1-1, 3-((2-(5-Fluoropyrimidin-2-ylamino)-4,5-dihydropyrazolo[3,4-b]thiazolo[4,5-d]azepin-6(7H)-yl)methyl)benzonitrile] yielded a melting point of 282 to 284 °C. For the same compound, in data set [1], the EC50 fell in the range of 100 to 1000 nM. The like results for `Fc1cnc(Nc2nc3c(s2)CCN(Cc2cccc(F)c2)c2[nH]ncc2-3)nc1` [Compound 1-2] were, in that order, 265 to 270 °C and 1000 to 10000 nM. For `Cc1nc(Nc2nc3c(s2)CCN(CC2CC2)c2[nH]ncc2-3)ns1` [Compound 1-3], the EC50 in data set [1] was 1000 to 10000 nM. Consider `Fc1cnc(Nc2nc3c(s2)CCN(Cc2cc(C4CC4)on2)c2[nH]ncc2-3)nc1` [Compound 1-4], for which the half-maximal effective concentration (EC50) in data set [1] is less than 100 nM. `Fc1cnc(Nc2nc3c(s2)CCN(Cc2cc(C4CC4)no2)c2[nH]ncc2-3)nc1` [Compound 1-7] showed a melting point of 266 to 268 °C. In addition, the EC50 in data set [1] is less than 100 nM. On to `Fc1cnc(Nc2nc3c(s2)CCN(Cc2csc(C4CC4)n2)c2[nH]ncc2-3)nc1` [Compound 1-8], for which the melting point is 240 to 245 °C. In addition, the EC50 in data set [1] lay within 100 to 1000 nM. For `Cc1ccnc(Nc2nc3c(s2)CCN(Cc2ccc(Cl)cn2)c2[nH]ncc2-3)n1` [Compound 1-10], the melting point fell in the range of 165 to 168 °C. The concentration giving a half-maximal response (EC50) in data set [1] is less than 100 nM. As for `Fc1cnc(Nc2nc3c(s2)CCN(CC2CC(F)(F)C2)c2[nH]ncc2-3)nc1` [Compound 1-14], the melting point was more than 280 °C. Further, in data set [1], the concentration for a half-maximal effect (EC50) fell in the range of 100 to 1000 nM.

In the case of `Cc1ccnc(Nc2nc3c(s2)CCNc2[nH]ncc2-3)n1` [Compound 1-52], the melting point fell in the range of 229 to 232 °C. In addition, the EC50 in data set [1] is less than 100 nM. In turn, `COC(C)(C)CN1CCc2sc(Nc3ncc(F)cn3)nc2-c2cn[nH]c21` [Compound 1-124] showed a melting point of 282 to 285 °C. The EC50 in data set [1] is 100 to 1000 nM. `COCC(C)N1CCc2sc(Nc3ncc(F)cn3)nc2-c2cn[nH]c21` (stereo not drawn) [Compound 1-125] showed a melting point of 212 to 215 °C. In data set [1], the EC50 was less than 100 nM.

For `Fc1cnc(Nc2nc3c(s2)CCN(C[C@@H]2CCCO2)c2[nH]ncc2-3)nc1` [Compound 1-126], in data set [1], the 50% effective concentration (EC50) is less than 100 nM. `Cc1cccc(Nc2nc3c(s2)CCN(C[C@@H]2CCCO2)c2[nH]ncc2-3)n1` [Compound 1-127]: the melting point lay in the range of 229 to 231 °C. For the same compound, in data set [1], the concentration giving a half-maximal response (EC50) lay within 100 to 1000 nM. The compound `COCCN1CCc2sc(Nc3ncc(F)c(C)n3)nc2-c2cn[nH]c21` [Compound 1-129, N-(5-Fluoro-4-methylpyrimidin-2-yl)-6-(2-methoxyethyl)-4,5,6,8-tetrahydropyrazolo[3,4-b]thiazolo[4,5-d]azepin-2-amine] yielded a melting point of 261 to 263 °C. Also, the EC50 in data set [1] is less than 100 nM. On to `CNCCCN1CCc2sc(Nc3ncc(F)cn3)nc2-c2cn[nH]c21` [Compound 1-130, N-(5-Fluoropyrimidin-2-yl)-6-(3-(methylamino)propyl)-4,5,6,8-tetrahydropyrazolo[3,4-b]thiazolo[4,5-d]azepin-2-amine], for which, in data set [1], the EC50 was 1000 to 10000 nM. The compound `COC[C@H](C)N1CCc2sc(Nc3ncc(F)cn3)nc2-c2cn[nH]c21` [Compound 1-131, N-(5-Fluoropyrimidin-2-yl)-6-(2-methoxy-1(S)-methyl-ethyl)-4,5,6,8-tetrahydropyrazolo[3,4-b]thiazolo[4,5-d]azepin-2-amine] showed a melting point of 249 to 251 °C. For the same compound, the concentration giving a half-maximal response (EC50) in data set [1] was less than 100 nM. In the case of `OCCCN1CCc2sc(Nc3ncc(F)cn3)nc2-c2cn[nH]c21` [Compound 1-132, 3-(2-(5-Fluoropyrimidin-2-ylamino)-4,5-dihydropyrazolo[3,4-b]thiazolo[4,5-d]azepin-6(8H)-yl)propan-1-ol], in data set [1], the EC50 is 100 to 1000 nM. In the case of `COCCOCCN1CCc2sc(Nc3ncc(F)cn3)nc2-c2cn[nH]c21` [Compound 1-133], the melting point was more than 220 °C. Besides, the EC50 in data set [1] is less than 100 nM.

Turning to `CCOCCN1CCc2sc(Nc3ncc(F)cn3)nc2-c2cn[nH]c21` [Compound 1-134], the melting point was 246 °C. In addition, in data set [1], the EC50 was less than 100 nM. The like results for `Fc1cnc(Nc2nc3c(s2)CCN(Cc2ccc(N4CCOCC4)cn2)c2[nH]ncc2-3)nc1` [Compound 1-135, N-(5-Fluoropyrimidin-2-yl)-6-((5-morpholinopyridin-2-yl)methyl)-4,5,6,8-tetrahydropyrazolo[3,4-b]thiazolo[4,5-d]azepin-2-amine] were, in that order, 240 °C and less than 100 nM. In the case of `Fc1cnc(Nc2nc3c(s2)CCN(CCN2CCOCC2)c2[nH]ncc2-3)nc1` [Compound 1-136, N-(5-Fluoropyrimidin-2-yl)-6-(2-morpholinoethyl)-4,5,6,8-tetrahydropyrazolo[3,4-b]thiazolo[4,5-d]azepin-2-amine], the half-maximal effective concentration (EC50) in data set [1] fell in the range of 100 to 1000 nM. `FCCN1CCc2sc(Nc3ncc(F)cn3)nc2-c2cn[nH]c21` [Compound 1-137] registered a melting point of 283 to 286 °C. Further, in data set [1], the EC50 was less than 100 nM. On to `Cc1nc(CN2CCc3sc(Nc4ncc(F)cn4)nc3-c3c[nH]nc32)no1` [Compound 1-138, N-(5-Fluoropyrimidin-2-yl)-6-((5-methyl-1,2,4-oxadiazol-3-yl)methyl)-4,5,6,8-tetrahydropyrazolo[3,4-b]thiazolo[4,5-d]azepin-2-amine], for which, in data set [1], the EC50 was less than 100 nM.

Turning to `Cn1ccc(CN2CCc3sc(Nc4ncc(F)cn4)nc3-c3cn[nH]c32)n1` [Compound 1-139], the melting point lay within 195 to 200 °C. Further, in data set [1], the half-maximal effective concentration (EC50) lay in the range of 100 to 1000 nM. Consider `Fc1cnc(Nc2nc3c(s2)CCN(CCCN2CCOCC2)c2n[nH]cc2-3)nc1` [Compound 1-140, N-(5-Fluoropyrimidin-2-yl)-6-(3-morpholinopropyl)-4,5,6,8-tetrahydropyrazolo[3,4-b]thiazolo[4,5-d]azepin-2-amine], for which the EC50 in data set [1] was less than 100 nM. On the same count and under the same terms, for `CC(C)N1CCN(CCN2CCc3sc(Nc4ncc(F)cn4)nc3-c3cn[nH]c32)CC1` [Compound 1-141, N-(5-Fluoropyrimidin-2-yl)-6-(2-(4-isopropylpiperazin-1-yl)ethyl)-4,5,6,8-tetrahydropyrazolo[3,4-b]thiazolo[4,5-d]azepin-2-amine] the value was 1000 to 10000 nM. As to `COCc1ccc(CN2CCc3sc(Nc4ncc(F)cn4)nc3-c3cn[nH]c32)nc1` [Compound 1-143], the melting point was in the range of 198 to 202 °C. Besides, in data set [1], the EC50 was less than 100 nM.

`Fc1cnc(Nc2nc3c(s2)CCN(CCCN2CCCCC2)c2[nH]ncc2-3)nc1` [Compound 1-144] had a melting point of 227 °C. Moreover, the EC50 in data set [1] was in the range of 100 to 1000 nM.

The compound `Cc1ccnc(Nc2nc3c(s2)CCN(CCCN2CCOCC2)c2[nH]ncc2-3)n1` [Compound 1-145] gave a melting point of 251 °C. The half-maximal effective concentration (EC50) in data set [1] is less than 100 nM. On to `Cc1ccnc(Nc2nc3c(s2)CCN(Cc2noc(C)n2)c2[nH]ncc2-3)n1` [Compound 1-146], for which the EC50 in data set [1] is less than 100 nM. For `CC(C)c1nc(CN2CCc3sc(Nc4ncc(F)cn4)nc3-c3cn[nH]c32)no1` [Compound 1-147], the melting point is more than 260 °C. For the same compound, in data set [1], the EC50 was less than 100 nM. Regarding `Cc1noc(CN2CCc3sc(Nc4ncc(F)cn4)nc3-c3cn[nH]c32)n1` [Compound 1-150, N-(5-Fluoropyrimidin-2-yl)-6-((3-methyl-1,2,4-oxadiazol-5-yl)methyl)-4,5,6,8-tetrahydropyrazolo[3,4-b]thiazolo[4,5-d]azepin-2-amine], in data set [1], the EC50 was less than 100 nM. The same measure, in the same setting: the value for `Cc1ccnc(Nc2nc3c(s2)CCN(Cc2ncccn2)c2[nH]ncc2-3)n1` [Compound 1-152] was 100 to 1000 nM.
